# Experimental data taken from patent US12558367B2, “Nicotinamide riboside and derivatives thereof in intravenous formulations and methods of use thereof” (ChromaDex Inc., priority 2023, dated 2026).
# “Also recorded” adds a separate entry of the source.
# Assays:
# [1] = Energy/Fatigue Scale, randomized placebo-controlled pilot clinical study (Study 1); assay type: in vivo, human; settings: for Mental Energy / Perceived Fatigue: possible scores 5-30; for General Energy / Motivation: possible scores 6-36; for Physical Energy: possible scores 7-42; for Emotional Energy: possible scores 8-48
# Method: (§1) The present randomized, double-blinded, placebo-controlled, pilot clinical study was initiated with the primary aim of investigating the safety, tolerability, and the blood NAD+-boosting efficacy of an acute, single dose of NR IV (500 mg, test), NAD+ IV (500 mg, active comparator), oral NR (500 mg, bridge), and saline IV (placebo control) in generally healthy adult participants. The study consisted of two parts; data from 37 and 16 participants in the first and second phases, respectively, were analyzed.
# (§2) This was a 2-part study. The first study was a 4-arm randomized, placebo-controlled parallel trial. The 3 IV arms were double-blinded, while the 4th arm involved oral administration making it naturally unblinded. Participants were randomized at a 10:10:10:6 ratio to intravenous placebo (saline), NAD^+, NR, or oral NR (oral). The second study was a randomized parallel design trial with two arms for the purpose of evaluating the actual differences in infusion rates in real time. Participants were randomized at a 1:1 ratio to intravenous NR or NAD^+.
# (§3) Vials of 50 mg/ml of NR or NAD+ were prepared in 10 ml of sterile water by DCA Pharmacy (Franklin, Tennessee) by prescription, for research administration only, and maintained in refrigerated conditions until use. For participants who were randomized to the test group or to the active comparator group, the NR or NAD+ was added to 500 ml of normal saline (B Braun 0.9% sodium chloride injection USP, preservative free) prior to intravenous administration. Those randomly assigned to the saline group received 500 ml of normal saline. Participants that were randomly assigned to the oral arm were provided with 500 mg of NR which was taken with water.
# (§4) To assess vital signs and subdomains on the sleep and energy scales, between-groups comparisons were assessed using analysis of covariance (ANCOVA) with baseline scores as the covariate and a Bonferroni correction. Levene's test was used to check and confirm the assumption of homogeneity of variances.
# (§5) Tables A-D below reflect mean scores for each group at days 7 and 14. An ANCOVA was used to identify statistical significant differences, using baseline scores as the covariate which helps to account for the natural variation in psychological measurements, increasing the power of the study.
# It is noted that the energy scale measures disruptions to energy levels; lower scores reflect greater levels of energy.
# [2] = Sleep Scale, pilot clinical study (Study 1); assay type: in vivo, human; settings: for Sleep Maintenance: possible scores 3-18; for Sleep Latency: possible scores 4-24; for Cognitive Effects / Daytime Sleepiness / Emotional Effects / Productivity / Sleep Inertia: possible scores 5-30
# Method: as §1, §2, §3, §4, §5
# For the sleep scale, the greatest improvements were seen on the scale of sleep latency, which refers to the ability to fall asleep at night, and sleep-related cognitive effects.
# [3] = Vital signs post-intervention (Study 1); assay type: in vivo, human; settings: single 500 mg dose, mean (SD)
# Method: as §1
# (§6) The safety of the IV infusion was evaluated using a combination of endpoints, including tolerable infusion rate, total number of adverse effects, participant vital signs, a complete blood count (CBC), a comprehensive metabolic panel (CMP), glucose and insulin levels, and the participant's self-reported subjective experience.
# as §4
# For the first study, data from 37 patients were available for intent to treat analysis; for the second study, data from 16 patients were available for intent to treat analysis.
# [4] = Tolerable infusion rate / infusion duration, Study 1; assay type: in vivo, human; settings: 500 mg in 500 ml saline, start 20 drops per minute for 15 minutes, then rate by participant comfort, mean ± SD
# Method: as §3
# (§7) In the first study, participants began the infusion at a rate of 20 drops per minute for the first 15 minutes to ensure safety and comfort. […] Participants were closely monitored for the duration of the infusion, and the infusion rate was decreased, as applicable, upon participant request.
# (§8) Additional analyses were conducted using GraphPad Prism (Ver. 10.0.2). Statistical significance was determined as p<0.05, with comparisons of the test articles compared to saline or between group comparisons. […] Time in chair was analyzed for study 1 by a one-way ANOVA with multiple comparisons, study 2 was analyzed by unpaired t-test. The baseline variable of age was analyzed for differences by one way ANOVA with multiple comparisons for study.
# [5] = Tolerable infusion rate / infusion duration, Study 2 (IV line fully open); assay type: in vivo, human; settings: males, rate decreased on request, mean (SD)
# Excerpt: as §2, with “NAD^+. […]” for “NAD^+.”
# as §7, §8
# [6] = Patient subjective experience and adverse event monitoring; assay type: in vivo, human
# Method: as §6
# Adverse event monitoring began on the first day of the study and continued for 14 days (study one) or 7 days (study two). Participants were instructed to notify the research staff of any new or unusual symptoms during the trial and open-ended questions during data collection solicited unexpected side effects.
# [7] = Clinical chemistry (comprehensive metabolic panel); assay type: in vivo, human
# Method: as §6
# (§9) Between-groups comparisons of each outcome measured in the […] and CMP were evaluated using mixed between-within subjects ANOVA with the timepoint being the within subjects' factor and the group assignment as the between subjects factor. Mauchly's test of sphericity was used to confirm assumptions. Violations of the assumption of sphericity are addressed with the Greenhouse-Geisser correction.
# (§10) Additional analyses were conducted using GraphPad Prism (Ver. 10.0.2). Statistical significance was determined as p<0.05, with comparisons of the test articles compared to saline or between group comparisons. 2way ANOVA with Tukey's multiple comparisons test with a single pooled variance was used to determine significance in hematology, clinical chemistry, and vitals. Time in chair was analyzed for study 1 by a one-way ANOVA with multiple comparisons, study 2 was analyzed by unpaired t-test. The baseline variable of age was analyzed for differences by one way ANOVA with multiple comparisons for study.
# [8] = Hematology (complete blood count); assay type: in vivo, human; settings: for mean corpuscular volume (MCV): in fL (unit assumed); for elevations in white blood cells and neutrophils: baseline to three-hours post-infusion
# Method: as §6, §9, §10
# whole blood NAD+ = assay: NAD+ analysis of dried blood spots (DBS) by LC/MS; assay type: in vivo, human; parameters: Mean NAD: unit not given here; settings: for Mean NAD: dried blood spot
# Method: Finger punctures were conducted using a lancet. Blood was then applied to the circles on the dried blood spot (DBS) card and allowed to dry for a minimum of 3 hours. […] See, for example, FIG. 3. The use of dried blood spots (DBS) allowed for the analysis of NAD+ levels based upon samples that could be prepared at the clinic or by the study participants from home. While 36 of 37 participants in study 1 utilized the DBS at all time points, not all samples were analyzable. […] However, the model was significant for the 3-hour timepoint (p=0.010; […] At 6 hours, near-significant differences were observed between the NAD+ and NR IV group (t=1.99, p=0.055), and significant differences were observed between the NR IV and saline groups (t=−2.80, p=0.009), and between the NR IV and oral NR groups (t=−2.59, p=0.015). See, Tables 3-9 below. Tables 3-9 below reflect mean/SD for each group at each of the 7 timepoints. A basic ANOVA was conducted to investigate the data.
# blood NAD+ = settings: cited from earlier work
# [9] = Energy/Fatigue Scale Day 7, mean score, lower = greater energy
# [10] = Energy/Fatigue Scale Day 7, mean score, lower scores = greater energy, single 500 mg dose
# [11] = Energy/Fatigue Scale Day 14, mean score, lower = greater energy
# [12] = 3 hours post infusion, mean ± SD
# [13] = Immediately Post-Intervention (10 minutes after infusion)
smiles,measurement,setting,value
"NC(=O)c1ccc[n+]([C@@H]2O[C@H](COP(=O)([O-])OP(=O)(O)OC[C@H]3O[C@@H](n4cnc5c(N)ncnc54)[C@H](O)[C@@H]3O)[C@@H](O)[C@H]2O)c1 [NAD+ IV, Nicotinamide Adenine Dinucleotide]",Mental Energy,[1]; [9],13.13
same,Perceived Fatigue,[1]; [9],15.75
same,General Energy,[1]; [9],20.63
same,Motivation,[1]; [9],11.13
same,Physical Energy,[1]; [10],19.63
same,Emotional Energy,[1]; [9],31.75
same,Mental Energy,[1]; [11],14.50
same,Perceived Fatigue,[1]; [11],15.50
same,General Energy,[1]; [11],20.13
same,Motivation,[1]; [11],13.50
same,Physical Energy,[1]; [11],18.50
same,Emotional Energy,[1]; [11],29.63
same,Sleep Maintenance,"[2]; Sleep Scale Day 7, mean score",8.88
same,Sleep Latency,"[2]; Sleep Scale Day 7, mean score",11.63
same,Cognitive Effects,"[2]; Sleep Scale Day 7, mean score",15.50
same,Daytime Sleepiness,"[2]; Sleep Scale Day 7, mean score",17.63
same,Emotional Effects,"[2]; Sleep Scale Day 7, mean score",15.75
same,Productivity,"[2]; Sleep Scale Day 7, mean score",13.86
same,Sleep Inertia,"[2]; Sleep Scale Day 7, mean score",17.38
same,Sleep Maintenance,"[2]; Sleep Scale Day 14, mean score",8.25
same,Sleep Latency,"[2]; Sleep Scale Day 14, mean score",10.75
same,Cognitive Effects,"[2]; Sleep Scale Day 14, mean score",15.63
same,Daytime Sleepiness,"[2]; Sleep Scale Day 14, mean score",16.88
same,Emotional Effects,"[2]; Sleep Scale Day 14, mean score",16.38
same,Productivity,"[2]; Sleep Scale Day 14, mean score",13.25
same,Sleep Inertia,"[2]; Sleep Scale Day 14, mean score",16.00
same,Post-intervention diastolic blood pressure,[3],73.40 (SD: 13.15) mmHg
same,Post-intervention heart rate,[3],68.40 (SD: 8.10) beats per minute
same,Post-intervention systolic blood pressure,[3],117.20 (SD: 14.54) mmHg
same,"infusion intake, average",[4],182.9 ± 55.93 min
same,average infusion rate (total infusion time),[5],98.88 (SD: 46.70) minutes
same,comfort level described by majority of patients,[6]; during IV infusion,low
same,patients having a bowel movement during the IV,"[6]; fraction of patients, nursing staff report",Approximately half
same,sensations / adverse experiences reported during infusion,"[6]; patient self-report, 500 mg IV","anxiety, headaches, nausea, and sudden urges to have a bowel movement or diarrhea; also recorded: nausea, headache, diarrhea, and muscle tightness"
same,significant differences in bilirubin and AST (indicators of liver function),[7]; 3- and 24-hour timepoints,not detected
same,change in globulin from baseline to 24 hours post infusion,"[7]; Study 1, mean ± SD",0.1300±0.1829
same,estimated glomerular filtration rate change from baseline to 3 hours post infusion,"[7]; Study 1, mean ± SD, not deemed clinically significant",1.400±8.462
same,White blood cell count,[8]; [12],6.990±2.386 Thousand/microliter
same,absolute neutrophils,[8]; [12],4724±2159 Cells/microliter
same,mean corpuscular volume (MCV),[8]; [12],87.38±3.991
same,mean corpuscular volume (MCV),"[8]; 24 hours post infusion, mean ± SD",87.34±3.035
same,elevations in white blood cells and neutrophils,[8],clinically significant elevations in white blood cells and increases in absolute and percentage neutrophils
same,mean corpuscular volume (MCV),"[8]; baseline, mean ± SD",88.43±3.772
same,effect on whole blood NAD+,"whole blood NAD+; NR IV: at 3 hours relative to placebo and NAD+ IV, NAD+ IV: within 24 hours",did not significantly elevate
same,increase in whole blood NAD+ relative to baseline,whole blood NAD+; at 24 hours,2%
same,Mean NAD,whole blood NAD+; 3 Hours Post-Intervention,19.20
same,Mean NAD,whole blood NAD+; 6 Hours Post-Intervention,18.88
same,Mean NAD,whole blood NAD+; 24 Hours Post-Intervention,19.73
same,Mean NAD,whole blood NAD+; Baseline Scores,19.27
same,Mean NAD,whole blood NAD+; [13],19.16
"NC(=O)c1ccc[n+]([C@@H]2O[C@H](CO)[C@@H](O)[C@H]2O)c1.[Cl-] [oral NR, nicotinamide riboside chloride]",Mental Energy,[1]; [9],14.90
same,Perceived Fatigue,[1]; [9],14.10
same,General Energy,[1]; [9],23.20
same,Motivation,[1]; [9],12.20
same,Physical Energy,[1]; [10],19.80
same,Emotional Energy,[1]; [9],32.50
same,Mental Energy,[1]; [11],15.67
same,Perceived Fatigue,[1]; [11],16.44
same,General Energy,[1]; [11],23.67
same,Motivation,[1]; [11],12.56
same,Physical Energy,[1]; [11],20.00
same,Emotional Energy,[1]; [11],32.44
same,Sleep Maintenance,"[2]; Sleep Scale Day 14, mean score",7.50
same,Sleep Latency,"[2]; Sleep Scale Day 14, mean score",10.00
same,Cognitive Effects,"[2]; Sleep Scale Day 14, mean score",16.36
same,Daytime Sleepiness,"[2]; Sleep Scale Day 14, mean score",15.63
same,Emotional Effects,"[2]; Sleep Scale Day 14, mean score",20.50
same,Productivity,"[2]; Sleep Scale Day 14, mean score",12.88
same,Sleep Inertia,"[2]; Sleep Scale Day 14, mean score",15.88
same,Post-intervention diastolic blood pressure,[3],71.00 (SD: 6.24) mmHg
same,Post-intervention heart rate,[3],65.78 (SD: 7.95) beats per minute
same,Post-intervention systolic blood pressure,[3],108.56 (SD: 9.08) mmHg
same,safety / attributable adverse events,[6]; intervention and follow-up period up to 14 days,safe and well tolerated
same,clinically relevant changes in comprehensive metabolic panel or CBC with differential,[7]; Study 1,did not display any clinically relevant changes
same,elevations in white blood cells and neutrophils,[8],not observed
same,Mean NAD,whole blood NAD+; 3 Hours Post-Intervention,18.54
same,Mean NAD,whole blood NAD+; 6 Hours Post-Intervention,18.01
same,Mean NAD,whole blood NAD+; 24 Hours Post-Intervention,23.25
same,Mean NAD,whole blood NAD+; Baseline Scores,18.34
same,Mean NAD,whole blood NAD+; [13],19.16
"NC(=O)c1ccc[n+]([C@@H]2O[C@H](COP(=O)([O-])O)[C@@H](O)[C@H]2O)c1 [NMN, Nicotinamide mononucleotide]",safety and tolerability,"blood NAD+; 300 mg in 100 mL saline, 5 mL/min IV, 10 healthy Japanese adults (Kimura et al.)",safe and well-tolerated
same,blood NAD+ levels,blood NAD+; intravenous NMN (Kimura et al.),elevated blood NAD+ levels at multiple timepoints relative to baseline
